In ChEMBL document CHEMBL1139796, “Novel anti-tuberculosis agents from MCR libraries” (Bioorg Med Chem Lett, 2007):

Tested on: Mycobacterium tuberculosis
Test: Antimycobacterial activity against Mycobacterium tuberculosis at 12.5 ug/ml
Assay type: functional
Settings: read-out: GI

**Q.** `C=CCNC(=O)C(CCCCC)N(CC(C)(C)C)C(=O)c1cccnc1` (stereo not drawn) was tested. Which inhibition of growth at 12.5 µg/mL did it give?
**A.** 73%

**Q.** How did the inhibition of growth at 12.5 µg/mL turn out when `C=CCNC(=O)C(C)(C)N(CCCN1CCOCC1)C(=O)c1cccnc1` was run?
**A.** 70%

**Q.** Which inhibition of growth at 12.5 µg/mL does the source give for `C=CCNC(=O)C(C(C)C)N(C(=O)c1cccnc1)C1CC1` (stereo not drawn) here?
**A.** 57%

**Q.** `C=CCNC(=O)C1(N(C(=O)c2cccnc2)C2CC2)CCN(Cc2ccccc2)CC1` was tested. Which inhibition of growth at 12.5 µg/mL did it give?
**A.** 43%

**Q.** How did the inhibition of growth at 12.5 µg/mL turn out when `C=CCNC(=O)C1(N(CC=C)C(=O)c2cccnc2)CCN(Cc2ccccc2)CC1` was run?
**A.** 94%

**Q.** With `C=CCNC(=O)C(C)(C)N(Cc1ccncc1)C(=O)c1cccnc1` as the molecule, how does the inhibition of growth at 12.5 µg/mL read?
**A.** 51%

**Q.** `C=CCNC(=O)C1(N(C(=O)c2cccnc2)C2CCCCC2)CCCCC1` was tested. Which inhibition of growth at 12.5 µg/mL did it give?
**A.** 76%

**Q.** `C=CCNC(=O)C(N(C(=O)c1cccnc1)C1CC1)C(Cl)(Cl)Cl` (stereo not drawn) was tested. Which inhibition of growth at 12.5 µg/mL did it give?
**A.** 9%

**Q.** `C=CCNC(=O)C(N(C(=O)c1cccnc1)C(C)c1ccccc1)C(F)(F)F` (stereo not drawn) was tested. Which inhibition of growth at 12.5 µg/mL did it give?
**A.** 90%

**Q.** `C=CCNC(=O)C1(N(C(=O)c2cccnc2)C2CCCCC2)CCN(Cc2ccccc2)CC1` was tested. Which inhibition of growth at 12.5 µg/mL did it give?
**A.** 101%

**Q.** `C=CCNC(=O)C1(N(CCCN2CCOCC2)C(=O)c2cccnc2)CCN(Cc2ccccc2)CC1` was tested. Which inhibition of growth at 12.5 µg/mL did it give?
**A.** 33%

**Q.** For `C=CCNC(=O)C(C)(c1ccccc1)N(CC(C)(C)C)C(=O)c1cccnc1` (stereo not drawn), which inhibition of growth at 12.5 µg/mL is on record?
**A.** 67%

**Q.** For `C=CCNC(=O)C(N(C(=O)c1cccnc1)C1CCCCC1)C(F)(F)F` (stereo not drawn), which inhibition of growth at 12.5 µg/mL is on record?
**A.** 60%

**Q.** How did the inhibition of growth at 12.5 µg/mL turn out when `C=CCNC(=O)C(C)(c1ccccc1)N(C(=O)c1cccnc1)C(C)c1ccccc1` (stereo not drawn) was run?
**A.** 83%

**Q.** Which inhibition of growth at 12.5 µg/mL does the source give for `C=CCNC(=O)C1(N(CCCn2ccnc2)C(=O)c2cccnc2)CCN(Cc2ccccc2)CC1` here?
**A.** 46%

**Q.** Which inhibition of growth at 12.5 µg/mL does the source give for `C=CCNC(=O)C(CCCCC)N(C(=O)c1cccnc1)C(C)c1ccccc1` (stereo not drawn) here?
**A.** 95%

**Q.** Which inhibition of growth at 12.5 µg/mL does the source give for `C=CCNC(=O)C(N(Cc1ccncc1)C(=O)c1cccnc1)C(F)(F)F` (stereo not drawn) here?
**A.** 58%

**Q.** For `C=CCNC(=O)C(N(CC(C)(C)C)C(=O)c1cccnc1)C(F)(F)F` (stereo not drawn), which inhibition of growth at 12.5 µg/mL is on record?
**A.** 77%

**Q.** `C=CCNC(=O)C(C=C)(CC)N(CC(C)(C)C)C(=O)c1cccnc1` (stereo not drawn) was tested. Which inhibition of growth at 12.5 µg/mL did it give?
**A.** 60%

**Q.** For `C=CCNC(=O)C(C)(C(C)C)N(CCCN1CCOCC1)C(=O)c1cccnc1` (stereo not drawn), which inhibition of growth at 12.5 µg/mL is on record?
**A.** 64%

**Q.** Which inhibition of growth at 12.5 µg/mL does the source give for `C=CCNC(=O)C(N(CC=C)C(=O)c1cccnc1)C(F)(F)F` (stereo not drawn) here?
**A.** 6%

**Q.** For `C=CCNC(=O)C1(N(CC(C)(C)C)C(=O)c2cccnc2)CCN(Cc2ccccc2)CC1`, which inhibition of growth at 12.5 µg/mL is on record?
**A.** 28%

**Q.** With `C=CCNC(=O)C(C)(c1ccccc1)N(CCCn1ccnc1)C(=O)c1cccnc1` (stereo not drawn) as the molecule, how does the inhibition of growth at 12.5 µg/mL read?
**A.** 71%

**Q.** Which inhibition of growth at 12.5 µg/mL does the source give for `C=CCNC(=O)C(CCCCC)N(CCCN1CCOCC1)C(=O)c1cccnc1` (stereo not drawn) here?
**A.** 74%

**Q.** How did the inhibition of growth at 12.5 µg/mL turn out when `C=CCNC(=O)C1(N(CCCn2ccnc2)C(=O)c2cccnc2)CCCc2cc(OC)ccc21` (stereo not drawn) was run?
**A.** 69%

**Q.** With `C=CCNC(=O)C(C)(C(C)C)N(C(=O)c1cccnc1)C1CCCCC1` (stereo not drawn) as the molecule, how does the inhibition of growth at 12.5 µg/mL read?
**A.** 95%

**Q.** How did the inhibition of growth at 12.5 µg/mL turn out when `C=CCNC(=O)C(CCCC)N(C(=O)c1cccnc1)C(C)c1ccccc1` (stereo not drawn) was run?
**A.** 100%

**Q.** Which inhibition of growth at 12.5 µg/mL does the source give for `C=CCNC(=O)C(C=C)(CC)N(CCCN1CCOCC1)C(=O)c1cccnc1` (stereo not drawn) here?
**A.** 31%

**Q.** `C=CCNC(=O)C(CCCC)N(C(=O)c1cccnc1)C1CC1` (stereo not drawn) was tested. Which inhibition of growth at 12.5 µg/mL did it give?
**A.** 96%

**Q.** With `C=CCNC(=O)C1(N(Cc2ccncc2)C(=O)c2cccnc2)CCCc2cc(OC)ccc21` (stereo not drawn) as the molecule, how does the inhibition of growth at 12.5 µg/mL read?
**A.** 63%

**Q.** How did the inhibition of growth at 12.5 µg/mL turn out when `C=CCNC(=O)C(C)(c1ccccc1)N(Cc1ccncc1)C(=O)c1cccnc1` (stereo not drawn) was run?
**A.** 68%

**Q.** Which inhibition of growth at 12.5 µg/mL does the source give for `C=CCNC(=O)C(C)(C(C)C)N(CC(C)(C)C)C(=O)c1cccnc1` (stereo not drawn) here?
**A.** 62%

**Q.** `C=CCNC(=O)C1(N(CCCn2ccnc2)C(=O)c2cccnc2)CCCCC1` was tested. Which inhibition of growth at 12.5 µg/mL did it give?
**A.** 43%

**Q.** How did the inhibition of growth at 12.5 µg/mL turn out when `C=CCNC(=O)C(C)(C)N(C(=O)c1cccnc1)C1CC1` was run?
**A.** 64%

**Q.** For `C=CCNC(=O)C(N(C(=O)c1cccnc1)C1CC1)C(F)(F)F` (stereo not drawn), which inhibition of growth at 12.5 µg/mL is on record?
**A.** 74%

**Q.** `C=CCNC(=O)C(C)(C(C)C)N(C(=O)c1cccnc1)C(C)c1ccccc1` (stereo not drawn) was tested. Which inhibition of growth at 12.5 µg/mL did it give?
**A.** 83%

**Q.** For `C=CCNC(=O)C(N(CCCN1CCOCC1)C(=O)c1cccnc1)C(F)(F)F` (stereo not drawn), which inhibition of growth at 12.5 µg/mL is on record?
**A.** 72%

**Q.** For `C=CCNC(=O)C(C)(c1ccccc1)N(CC=C)C(=O)c1cccnc1` (stereo not drawn), which inhibition of growth at 12.5 µg/mL is on record?
**A.** 69%
